Data as given in patent publication US20140073589A1, “Amphetamine Prodrugs” (Shire AG, priority 2012, published 2014).
“Also recorded” adds a separate entry of the source.

How the values were obtained:
[1] = tested on: dog faecal homogenates; experiment: In vitro conversion of amphetamine prodrugs to amphetamine in dog faecal homogenates; type: in vitro ADME; details: dog faecal homogenate, prodrug 10 μM, anaerobic, 37° C.; for Amphetamine C6: 6 hours; for Amphetamine C24: 24 hours; for Amphetamine C0: time 0
Procedure: (§1) Frozen samples were stored at −70° C. prior to analysis for the parent drug and pro-drug using a qualified LC-MS-MS assay.

[2] = tested on: human faecal homogenates; experiment: In vitro conversion of amphetamine prodrugs to amphetamine in human faecal homogenates; type: in vitro ADME; details: for Amphetamine C6 / Amphetamine C24 / Amphetamine C0: human faecal homogenate, prodrug 10 μM, anaerobic, 37° C.; for Amphetamine C6: 6 hours; for Amphetamine C24: 24 hours; for Amphetamine C0: time 0; for conversion to the active by the microflora: summary of Table 4 incubations (dog, monkey, human faecal homogenates, rat caecal contents); for conversion to the active, human compared to dog faecal homogenates: human vs dog faecal homogenates
Procedure: as §1

[3] = Pharmacokinetics of prodrug and amphetamine after oral dosing to male dogs (Example 20); details: for absorption of prodrug in the upper gastrointestinal tract: male dogs, oral gavage of prodrug; for AUC / Tmax: male, dog, in vivo, po, 0.5 mg
[4] = tested on: monkey faecal homogenates; experiment: In vitro conversion of amphetamine prodrugs to amphetamine in monkey faecal homogenates; type: in vitro ADME; details: monkey faecal homogenate, prodrug 10 μM, anaerobic, 37° C., time 0
Procedure: as §1

[5] = Pharmacokinetics of amphetamine after oral dosing of d-amphetamine or Compound 1, or intranasal dosing of Compound 1, to male dogs (Example 23)
[6] = Pharmacokinetics of prodrug and amphetamine after oral dosing to male cynomolgus monkeys (Example 21); details: cynomolgus monkey
[7] = tested on: faecal homogenates prepared from three subjects; experiment: Interindividual variability in amphetamine generation in human fecal homogenates (Example 25); details: 100 μM, anaerobic, 37° C., up to 6 hours
[8] = Pharmacokinetics of prodrug and amphetamine after intravenous dosing to male cynomolgus monkeys (Example 22)

CC(=O)N[C@@H]1CO[C@H](CO)[C@@H](O)[C@@H]1O[C@H](C)C(=O)N[C@@H](C)Cc1ccccc1 [Compound 11, (R)-2-(((2R,3S,4R,5R)-5-Acetamido-3-hydroxy-2-(hydroxymethyl)tetrahydro-2H-pyran-4-yl)oxy)-N-((S)-1-phenylpropan-2-yl)propanamide]
Amphetamine C6 [1]: BLQ
Amphetamine C24 [1]: BLQ
Amphetamine C0 [1]: BLQ
Amphetamine C6 [2]: BLQ
Amphetamine C24 [2]: BLQ
Amphetamine C0 [2]: BLQ

CCO[C@H]1O[C@H](CO)[C@@H](O)[C@H](O)[C@H]1NNC(C)Cc1ccccc1 (stereo partly drawn) [Compound 9, (2R,3S,4R,5R,6S)-6-Ethoxy-2-(hydroxymethyl)-5-[2-(1-phenylpropan-2-yl)hydrazin-1-yl]oxane-3,4-diol]
absorption of prodrug in the upper gastrointestinal tract [3]: high absorption

C[C@@H](Cc1ccccc1)NC(=O)[C@H](O)[C@@H](O)[C@H](O)[C@H](O)CO [Compound 6, (2R,3S,4R,5R)-2,3,4,5,6-pentahydroxy-N-((S)-1-phenylpropan-2-yl)hexanamide]
Amphetamine C0 [1]: BLQ
absorption of prodrug in the upper gastrointestinal tract [3]: high absorption
Amphetamine C0 [2]: BLQ

CC(=O)N[C@H]1C(O)O[C@H](CO)[C@@H](O)[C@@H]1O[C@@H](C)C(=O)N[C@@H](C)Cc1ccccc1 (stereo partly drawn) [Compound 14, (2S)-2-(((3R,4R,5S,6R)-3-Acetamido-2,5-dihydroxy-6-(hydroxymethyl)tetrahydro-2H-pyran-4-yl)oxy)-N-((S)-1-phenylpropan-2-yl)propanamide]
Amphetamine C0 [1]: BLQ
Amphetamine C6 [2]: BLQ
Amphetamine C24 [2]: BLQ
Amphetamine C0 [2]: BLQ

CC(=O)N[C@H]1C(O)O[C@H](CO)[C@H](O)C1O[C@H](C)C(=O)N[C@@H](C)Cc1ccccc1 (stereo partly drawn) [Compound 1, (2R)-2-(((3R,4R,5R,6R)-3-acetamido-2,5-dihydroxy-6-(hydroxymethyl)tetrahydro-2H-pyran-4-yl)oxy)-N-((S)-1-phenylpropan-2-yl)propanamide]
Amphetamine C0 [4]: BLQ
exposure to amphetamine, intranasal compared with oral administration of the prodrug ([5]; 4 mg intranasal vs 4 mg po): less than that observed following oral administration of the prodrug
onset of amphetamine appearance in the systemic circulation ([5]; intranasal): did not enhance the onset
AUC ([6]; in vivo, 0.5 mg): 187 ng·h/mL
Tmax ([6]; in vivo, 0.5 mg): 1.1 h
variability of amphetamine generation between subjects [7]: relatively modest variability
AUC [3]: 354 ng·h/mL
Tmax [3]: 1 h
conversion to the active by the microflora [2]: efficient conversion
conversion to the active amphetamine following systemic exposure [8]: no significant quantities
amphetamine levels where detected (one time point between 4 and 8 hours) ([8]; 0.2 mg d-amphetamine free base equivalents/kg): near the limit of quantification

C[C@@H](Cc1ccccc1)NC(=O)[C@@H](C)O[C@H]1[C@H](O)[C@@H](CO)OC(O)[C@@H]1N (mixture of isomers) [Compound 4, (2R)-2-(((3R,4R,5S,6R)-3-amino-2,5-dihydroxy-6-(hydroxymethyl)tetrahydro-2H-pyran-4-yl)oxy)-N-((S)-1-phenylpropan-2-yl)propanamide]
Amphetamine C0 [1]: BLQ
Amphetamine C0 [2]: BLQ

CO[C@H]1O[C@H](CO)[C@@H](O)[C@H](O)[C@H]1NNC(C)Cc1ccccc1 (stereo partly drawn) [Compound 10, (2R,3S,4R,5R,6S)-6-Methoxy-2-(hydroxymethyl)-5-[2-(1-phenylpropan-2-yl)hydrazin-1-yl]oxane-3,4-diol]
absorption of prodrug in the upper gastrointestinal tract [3]: high absorption

C[C@@H](Cc1ccccc1)NC(=O)[C@H](O)[C@@H](O)[C@H](O[C@@H]1O[C@H](CO)[C@H](O)[C@H](O)[C@H]1O)[C@H](O)CO [Compound 5, (2R,3R,4R,5R)-2,3,5,6-tetrahydroxy-N-((S)-1-phenylpropan-2-yl)-4-(((2S,3R,4S,5R,6R)-3,4,5-trihydroxy-6-(hydroxymethyl)tetrahydro-2H-pyran-2-yl)oxy)hexanamide]
conversion to the active, human compared to dog faecal homogenates [2]: greater activity in human in vitro studies; also recorded: higher in human compared to dog faecal homogenates
conversion to the active by the microflora [2]: efficient conversion

C[C@H](N)Cc1ccccc1 [d-Amphetamine, d-amphetamine]
Tmax ([6]; in vivo, 1 mg/kg): ≤ 1 h
AUC ([6]; plasma, 1 mg/kg): 4440 ng·h/mL
Tmax ([6]; plasma, 1 mg/kg): 2.4 h

CCC(=O)N[C@H]1C(O)O[C@H](CO)[C@@H](O)[C@@H]1O[C@H](C)C(=O)N[C@@H](C)Cc1ccccc1 (stereo partly drawn) [Compound 16, (2R)-2-[(3R,4R,5S)-2,5-dihydroxy-6-(hydroxymethyl)-3-(propanoylamino)tetrahydropyran-4-yl]oxy-N-[(1S)-1-methyl-2-phenyl-ethyl]propanamide]
Amphetamine C0 [1]: BLQ
AUC [3]: 273 ng·h/mL
Tmax [3]: 0.5 h
Amphetamine C0 [2]: BLQ
conversion to the active by the microflora [2]: efficient conversion

CC(C)C(=O)N[C@@H](C=O)[C@@H](O[C@H](C)C(=O)N[C@@H](C)Cc1ccccc1)[C@H](O)[C@H](O)CO [Compound 18, N-((2R,3R,4R,5R)-4,5,6-trihydroxy-1-oxo-3-(((R)-1-oxo-1-(((S)-1-phenylpropan-2-yl)amino)propan-2-yl)oxy)hexan-2-yl)isobutyramide]
Amphetamine C0 [1]: BLQ
Amphetamine C0 [2]: BLQ

C[C@@H](Cc1ccccc1)NC(=O)[C@@H](C)O[C@H]1[C@H](O)[C@@H](CO)OC[C@H]1N [Compound 12, (R)-2-(((2R,3S,4R,5R)-5-Amino-3-hydroxy-2-(hydroxymethyl)tetrahydro-2H-pyran-4-yl)oxy)-N-((S)-1-phenylpropan-2-yl)propanamide]
Amphetamine C6 [1]: BLQ
Amphetamine C24 [1]: BLQ
Amphetamine C0 [1]: BLQ
Amphetamine C6 [2]: BLQ
Amphetamine C24 [2]: BLQ
Amphetamine C0 [2]: BLQ

C[C@@H](Cc1ccccc1)NC(=O)[C@@H](C)OC(=O)N[C@H]1C(O)O[C@H](CO)[C@@H](O)[C@@H]1O (stereo partly drawn) [Compound 8, (1R)-1-{[(2S)-1-Phenylpropan-2-yl]carbamoyl}ethyl N-[(3R,4R,5S,6R)-2,4,5-trihydroxy-6-(hydroxymethyl)oxan-3-yl]carbamate]
Amphetamine C6 [1]: BLQ
Amphetamine C24 [1]: BLQ
Amphetamine C0 [1]: BLQ
Amphetamine C6 [2]: BLQ
Amphetamine C24 [2]: BLQ
Amphetamine C0 [2]: BLQ

CCCCCCCC(=O)N[C@@H](C=O)[C@@H](O[C@H](C)C(=O)N[C@@H](C)Cc1ccccc1)[C@H](O)[C@H](O)CO [Compound 19, N-((2R,3R,4R,5R)-4,5,6-trihydroxy-1-oxo-3-(((R)-1-oxo-1-(((S)-1-phenylpropan-2-yl)amino)propan-2-yl)oxy)hexan-2-yl)octanamide]
Amphetamine C0 [1]: BLQ
Amphetamine C6 [2]: BLQ
Amphetamine C0 [2]: BLQ

CC(=O)N[C@@H](C=O)[C@@H](O[C@H](C)C(=O)N[C@H](C)Cc1ccccc1)[C@H](O)[C@H](O)CO [Compound 13, (2R)-2-{[(2R,3R,4R,5R)-2-Acetamido-4,5,6-trihydroxy-1-oxohexan-3-yl]oxy}-N-[(2R)-1-phenylpropan-2-yl]propanamide]
AUC [3]: 564 ng·h/mL
Tmax [3]: 0.75 h
Amphetamine C0 [2]: BLQ
conversion to the active by the microflora [2]: efficient conversion

CC(=O)N[C@H]1[C@@H]2OC[C@@H](O2)[C@@H](O)[C@@H]1O[C@H](C)C(=O)N[C@H](C)Cc1ccccc1 [Compound 17, (2R)-2-[[(2S,3R,4R)-4-acetamido-2-hydroxy-6,8-dioxabicyclo[3.2.1]octan-3-yl]oxy]-N-[(1R)-1-methyl-2-phenyl-ethyl]propanamide]
Amphetamine C0 [1]: BLQ
AUC [3]: 213 ng·h/mL
Tmax [3]: 0.5 h
Amphetamine C0 [2]: BLQ
conversion to the active, human compared to dog faecal homogenates [2]: greater activity in human in vitro studies; also recorded: higher in human compared to dog faecal homogenates
conversion to the active by the microflora [2]: efficient conversion

CC(=O)N[C@H]1C(O)O[C@H](CO)[C@@H](O)[C@@H]1OCC(=O)N[C@@H](C)Cc1ccccc1 (stereo partly drawn) [Compound 15, 2-(((3R,4R,5S,6R)-3-acetamido-2,5-dihydroxy-6-(hydroxymethyl)tetrahydro-2H-pyran-4-yl)oxy)-N-((S)-1-phenylpropan-2-yl)acetamide]
Amphetamine C0 [1]: BLQ
Amphetamine C0 [2]: BLQ
